Where two headings read alike, the source gives them in different places.
Assays:
[1] = AUDA-BE and its metabolites measured in brain tissue; format: in vivo, mice
Text: This concentration was also biologically effective in lowering blood pressure in hypertensive model (Imig et al. (2005) Hypertension 46:975-81). Therefore, in these experiments, the levels of sEH inhibitors in the blood are in the concentration range expected to inhibit the enzyme.

[2] = target: T1, soluble epoxide hydrolase (Mus musculus, UniProt P34914); assay: Soluble epoxide hydrolase activity assay in brain after systemic AUDA-BE ([3H]-tDPPO substrate); format: in vivo
T1 construct: from tissue; host or cells: mouse brain (C57Bl/6), cytosolic or peroxisomal fractions
T1 sequence (P34914 1-554): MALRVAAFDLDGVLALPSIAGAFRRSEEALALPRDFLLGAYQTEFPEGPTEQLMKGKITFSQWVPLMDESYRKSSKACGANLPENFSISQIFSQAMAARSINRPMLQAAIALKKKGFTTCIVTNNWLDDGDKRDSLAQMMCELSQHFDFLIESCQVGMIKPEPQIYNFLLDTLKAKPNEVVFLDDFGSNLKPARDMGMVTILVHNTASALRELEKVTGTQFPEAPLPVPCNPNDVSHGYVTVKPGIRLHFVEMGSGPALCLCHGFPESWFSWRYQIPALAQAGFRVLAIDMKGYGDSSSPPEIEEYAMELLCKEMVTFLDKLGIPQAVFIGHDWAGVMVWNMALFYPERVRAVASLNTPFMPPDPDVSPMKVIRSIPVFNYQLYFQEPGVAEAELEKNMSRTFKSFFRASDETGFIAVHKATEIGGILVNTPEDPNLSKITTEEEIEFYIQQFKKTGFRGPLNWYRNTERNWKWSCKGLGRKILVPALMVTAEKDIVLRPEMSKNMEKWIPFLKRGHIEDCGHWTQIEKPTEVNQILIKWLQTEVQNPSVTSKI
Experimental: Rate of hydration of tDPPO is determined by liquid scintillation spectroscopy after differential extraction of the epoxide and diol. Briefly, cytosolic or peroxisomal fractions were incubated at 37° C. in 100 μL incubation mixtures containing sodium phosphate buffer (90 mmol/L, pH 7.4) and tDPPO (1 to 50 μmol/L in 1 μL dimethylformamide). Incubations were stopped after 5 minutes with the addition of 60 μL methanol and 200 μL isooctane. Zero-time and zero-protein incubations served as blanks. Incubations were vortexed vigorously to extract the substrate into the isooctane (the diol metabolite remains in the aqueous phase). A known aliquot of the aqueous phase was removed and added to 1 mL scintillation cocktail for scintillation counting. Extraction efficiency exceeded 91%.
It should be noted that these sEH inhibitors are reversible transition state inhibitors. Thus, the levels of inhibition are certain to be above those detected due to dilution of the sample during work up.

mice = format: in vivo
Text: Male mice between the ages of 16-24 weeks were anesthetized with isoflurane (induction 4-5 vol %; maintenance 1-2 vol %), intubated with a 20G plastic IV catheter, and mechanically ventilated using a rodent ventilator (Inspira, volume-controlled, Harvard Apparatus, MA). ECG and rectal temperature were continuously monitored using a PC-based recording device (PowerLab 8/30, ADInstruments, Colorado Springs, Colo.). The animals were positioned in a right lateral decubital position on a heating pad and rectal temperature was maintained at 37° C. throughout the experiment. A PE-10 catheter was inserted into the left jugular vein for intravenous drug infusion. Using a dissecting microscope, a left-sided thoracotomy was performed in the 4th intercostal space. […] A ligature (8-0 Monosof MV-135-4, ⅜ 5 mm tapered needle, Syneture, Norwalk, Colo.) was placed around the left coronary artery (LCA) approximately 2 mm distal to the left atrial margin. The suture was fed through a short section of PE-10 tubing to form a snare to allow temporary occlusion. The LCA was occluded for 40 minutes; occlusion was confirmed by persistent ECG changes during occlusion and visual paling of the left ventricle (LV). After 40 minutes the snare was released and reperfusion was confirmed with visual hyperemia of the LV and return of the ECG changes. After 2 hours of reperfusion the LCA was re-occluded and fluorescent polymer microspheres (0.4% solution, diameter 1-10 μm; Duke Scientific Corporation, Palo Alto, Calif.) were infused via needle puncture of the LV apex. […] Heart was then excised, rinsed in normal saline, and the right and left atria were removed under the dissecting microscope. The remaining left and right ventricles were weighed and then sliced into seven sections (d=1 mm) for imaging and staining.
Heart sections were immediately photographed with a digital camera (Canon Powershot A620) under UV light for determination of AAR. Infarct size (I) was determined by staining the heart sections in 1% 2,3,5 triphenyltetrazolium chloride (TTC) in phosphate buffer at pH 7.4 for 10 minutes, followed by 10% neutral buffered formalin (NBF) bath overnight. Pictures were taken the next day under full spectrum light. TTC stained non-infarcted myocardium red, while infarcted myocardium remained white. Both AAR and I areas were calculated in a blinded fashion using standard imaging software (Photoshop Elements 4). A calibration ruler was present in each picture to convert pixels into volume. TTC slices were volume corrected for dehydration following formalin immersion.
The 14,15-EET was obtained from BIOMOL (Plymouth Meeting, Pa.). It was dissolved in a vehicle composed of 100% ethanol and saline (1:3), resulting in a final ethanol solution of 25%. […] SNC-162, a non-peptide δ-opioid receptor agonist, was used for comparison of the magnitude of cardioprotection found within the epoxide pathway. SNC-162 (0.1 μg/g iv over 10 minutes) was dissolved in 10% DMSO.

epoxide hydrolase = assay: Hydrolase activity in brain tissue ex vivo, conversion of 14,15-EET to 14,15-DHET (ELISA); format: biochemical, mouse; conditions: both WT and KO brain tissue
Experimental: Total 14,15-DHET in blood was measured with a commercial ELISA (Detroit R&D, Inc, Detroit, Mich.) (Koerner et al. (2007) J. Neurosci., 27:4642-4649). Briefly, plasma lipids were extracted 3 times with ethyl acetate under acidic conditions (pH 3 to 4), followed by saponification with 20% KOH. Samples were dried and resuspended in methanol, and 14,15-DHET concentration was measured according to the manufacturer's instructions. The ELISA was also used to measure hydrolase activity in brain tissue (perfused to remove blood) incubated with 1 μM 14,15-EET for 30 minutes. Brian tissue was homogenized in 4 volumes of ice-cold buffer (20 mmol/L Tris HCL pH 7.4, 0.32 mol/L sucrose, 1 mmol/L EDTA), centrifuged at 1000 g for 10 minutes, and supernatant was further centrifuged at 10,000 g for 20 minutes.

levels detected in homogenates of brain tissue ([1]; after AUDA-BE injection, methanol/chloroform extraction): not
average brain sEH activity over 24 hours ([2]; AUDA-BE 10 mg/kg intraperitoneally, 1, 3, 6 and 24 hours, vehicle 1.92±0.06 nmol/mg): 1.56±0.13 nmol/mg protein
inhibition at 10 mg/kg ([2]; mouse, ip, read-out: inhibition of brain sEH activity): ≥ 20%
metabolism of 14,15-EET to 14,15-DHET in brain tissue (epoxide hydrolase): inhibited
Structure (SMILES): CCCCOC(=O)CCCCCCCCCCCNC(=O)NC12CC3CC(CC(C3)C1)C2 [AUDA-BE, 12-(3-adamantane-1-yl-ureido)-dodecanoic acid butyl ester]
crossing the blood brain barrier (BBB) ([1]; mouse, in vivo): capable of crossing the blood brain barrier
Infarct Volume (mice; PRO (given prior to reperfusion)): 15 ± 3 mm^3
infarct size after myocardial I/R compared to vehicle (mice; given before ischemia or before reperfusion): significantly reduced infarct size
Infarct Volume (mice; given prior to LCA occlusion (PRE)): 12 ± 2 mm^3

— patent US20090069418A1, “Compositions and Methods for the Treatment of Disorders Associated with Aberrant Vasodilation” (priority 2007, published 2009)
